Reference: PMC6893700 (Viruses, 2019)
Where two headings read alike, the source gives them in different places.

Legend:
ZIKV strain R116265 = test: Plaque reduction inhibition assay, ZIKV R116265 in Vero E6 cells; format: cell-based; settings: Zika virus, Vero C1008
ZIKV strain PLCal_ZV = test: Plaque reduction inhibition assay, ZIKV PLCal_ZV in Vero E6 cells; format: cell-based; settings: Zika virus
in vitro [1] = settings: African green monkey
[2] = biological target: ZIKV full-length E protein (Zika virus, UniProt A0A024B7W1); format: binding; settings: ELISA
Chain of ZIKV full-length E protein (A0A024B7W1 291-794): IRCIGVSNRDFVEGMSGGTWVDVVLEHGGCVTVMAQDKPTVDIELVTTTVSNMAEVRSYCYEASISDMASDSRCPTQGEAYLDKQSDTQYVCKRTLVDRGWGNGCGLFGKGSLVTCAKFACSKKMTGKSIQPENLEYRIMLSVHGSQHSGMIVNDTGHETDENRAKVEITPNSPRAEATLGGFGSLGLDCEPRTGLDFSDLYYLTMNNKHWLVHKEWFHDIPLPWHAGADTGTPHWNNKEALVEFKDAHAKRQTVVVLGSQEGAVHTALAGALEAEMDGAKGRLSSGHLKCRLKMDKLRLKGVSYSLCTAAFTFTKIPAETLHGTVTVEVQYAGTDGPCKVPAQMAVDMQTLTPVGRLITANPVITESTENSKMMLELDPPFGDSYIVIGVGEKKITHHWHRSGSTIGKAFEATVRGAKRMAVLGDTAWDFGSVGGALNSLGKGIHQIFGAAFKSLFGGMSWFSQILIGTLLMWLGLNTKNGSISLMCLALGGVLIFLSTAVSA

ZIKV strain PAN2015 = test: Plaque reduction inhibition assay, ZIKV PAN2015 in Vero E6 cells; format: cell-based; settings: Zika virus, Vero C1008
[3] = biological target: T1, ZIKV envelope protein domain III (EDIII) protein (Zika virus, UniProt A0A024B7W1); format: binding; settings: ELISA
T1 construct: E residues 298–409 fused with a C-terminal human Fc; made in house
T1 sequence (A0A024B7W1 588-699): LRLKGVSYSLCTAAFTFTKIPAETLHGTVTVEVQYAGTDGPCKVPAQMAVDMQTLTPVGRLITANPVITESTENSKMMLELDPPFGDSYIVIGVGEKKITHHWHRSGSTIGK

ZIKV strain PAN2016 [4] = test: Plaque reduction inhibition assay, ZIKV PAN2016 in Vero E6 cells; format: cell-based; settings: Zika virus
in vitro [5] = settings: African green monkey; remark: listed apart in the source
ZIKV strain FLR [6] = test: Plaque reduction inhibition assay, ZIKV FLR in Vero E6 cells; format: cell-based; settings: Zika virus
[7] = tested on: ZIKV rhesus macaque strain MR 766; test: Plaque reduction inhibition assay, ZIKV MR 766 in Vero E6 cells; format: cell-based; settings: Zika virus, Vero C1008, in Macaca mulatta, read-out: IC50 MR 766
ZIKV strain IbH 30656 = test: Plaque reduction inhibition assay, ZIKV IbH 30656 in Vero E6 cells; format: cell-based; settings: Zika virus
[8] = tested on: ZIKV mosquito strain MEX 2–81; test: Plaque reduction inhibition assay, ZIKV MEX 2–81 in Vero E6 cells; format: cell-based; settings: Zika virus
ZIKV strain PRVABC59 [9] = format: cell-based, Zika virus (ZIKV); settings: Zika virus, Vero C1008; ZIKV PRVABC59, Vero E6, natural product without combination; read-out: IC50 Alone
ZIKV strain PAN2016 [10] = format: cell-based, Zika virus (ZIKV); settings: Zika virus
ZIKV strain FLR [11] = format: cell-based, Zika virus (ZIKV); settings: Zika virus
ZIKV strain PRVABC59 [12] = test: Plaque reduction inhibition assay, ZIKV PRVABC59 in Vero E6 cells; format: cell-based; settings: Zika virus
DENV-3-V1043 = test: Plaque reduction inhibition assay, DENV-3 in LLC-MK2 cells; format: cell-based; settings: Dengue virus, DENV3
ZIKV strain R103451 = test: Plaque reduction inhibition assay, ZIKV R103451 in Vero E6 cells; format: cell-based; settings: Zika virus, Vero C1008, read-out: IC50 R103451
Vero E6 cells = test: Initial screening: cytotoxicity observed under a microscope; settings: initial screening at 20 µM
[13] = biological target: binding between ZIKV EDIII protein and EDIII-specific human mAbs (Zika virus, UniProt A0A024B7W1); settings: ELISA; no binding between ZKA78 and EDIII
Chain of binding between ZIKV EDIII protein and EDIII-specific human mAbs (A0A024B7W1 588-699): as above

nine ZIKV strains = test: Plaque reduction inhibition assay, nine additional ZIKV strains (summary); format: cell-based; settings: Zika virus, Vero C1008; range over nine additional ZIKV strains, Vero E6 cells; read-out: IC50 values against all nine ZIKV strains tested
in vitro [14] = settings: rhesus monkey
DENV-4-PR 06-65-740 = test: Plaque reduction inhibition assay, DENV-4 in LLC-MK2 cells; format: cell-based; settings: Dengue virus, DENV4
DENV-1-V1792 = test: Plaque reduction inhibition assay, DENV-1 in LLC-MK2 cells; format: cell-based; settings: Dengue virus, DENV1
DENV-2-V594 = test: Plaque reduction inhibition assay, DENV-2 in LLC-MK2 cells; format: cell-based; settings: Dengue virus, DENV2
ZIKV (PAN2016) = test: Time-of-addition experiment, ZIKV PAN2016 in Vero E6 cells; format: cell-based, Zika virus (ZIKV); settings: gossypol 15 µM, curcumin 30 µM, digitonin 7.5 µM, conessine 30 µM
[15] = Vero C1008, read-out: IC50 Alone

CC(C)C[C@H](NC(=O)[C@H](Cc1ccccc1)NC(=O)c1cnccn1)B(O)O [Bortezomib, bortezomib, reference compound]
IC50 (ZIKV strain R116265): 8.94 ± 0.1 µM | IC50 (ZIKV strain PLCal_ZV; Vero C1008, plaque reduction, Vero E6 cells, read-out: IC50 PLCal_ZV): 31 ± 0.71 µM | CC50 at 3 days (in vitro [1]): 17.77 ± 0.17 µM | binding to ZIKV full-length E protein (in words) [2]: did not bind | IC50 (ZIKV strain PAN2015): 9.88 ± 0.12 µM | binding to ZIKV EDIII protein (in words) [3]: did not bind | IC50 (ZIKV strain PAN2016 [4]; Vero C1008, plaque reduction, Vero E6 cells, read-out: IC50 PAN2016): 9.75 ± 0.03 µM | CC50 at 3 days (in vitro [5]): 17 ± 0.2 µM | IC50 (ZIKV strain FLR [6]; Vero C1008, plaque reduction, Vero E6 cells, read-out: IC50 FLR): 9.62 ± 0.59 µM | IC50 ([7]; plaque reduction, Vero E6 cells): 9.51 ± 0.26 µM | IC50 (ZIKV strain IbH 30656; Vero C1008, plaque reduction, Vero E6 cells, read-out: IC50 IbH 30656): 9.35 ± 0.23 µM | IC50 ([8]; Vero C1008, plaque reduction, Vero E6 cells, read-out: IC50 MEX 2–81): 7.67 ± 0.31 µM | IC50 (ZIKV strain PRVABC59 [9]): 12.17 ± 0.07 µM | IC50 (ZIKV strain PAN2016 [10]; Vero C1008, ZIKV PAN2016, Vero E6, natural product without combination, read-out: IC50 Alone): 10.65 ± 0.01 µM | IC50 (ZIKV strain FLR [11]; Vero C1008, ZIKV FLR, Vero E6, natural product without combination, read-out: IC50 Alone): 9.7 ± 0.76 µM | IC50 (ZIKV strain PRVABC59 [12]; Vero C1008, plaque reduction, Vero E6 cells): 11.7 ± 0.82 µM

Cc1cc2c(C(C)C)c(O)c(O)c(C=O)c2c(O)c1-c1c(C)cc2c(C(C)C)c(O)c(O)c(C=O)c2c1O [Gossypol, gossypol]
IC50 (DENV-3-V1043): 3.7 ± 0.59 µM | IC50 (ZIKV strain PLCal_ZV; Vero C1008, read-out: IC50 PLCal_ZV): 1.98 ± 0.07 µM | IC50 (ZIKV strain R103451): 2.28 ± 0.1 µM | cytotoxicity in Vero E6 cells observed under a microscope (Vero E6 cells): no obvious cytotoxicity | inhibition with control mAb ZKA78 (EDI/DII-specific) [13]: no obvious inhibition | IC50 (nine ZIKV strains): 0.21 to 4.31 µM | CC50 at 3 days (in vitro [1]): 14.8 ± 0.42 µM | CC50 at 3 days (in vitro [14]): 14.5 ± 0.59 µM | IC50 (ZIKV strain PAN2016 [4]; Vero C1008, read-out: IC50 PAN2016): 3.48 ± 0.03 µM | IC90 (ZIKV strain PAN2016 [4]; Vero C1008, read-out: IC90 against ZIKV PAN2016 strain): ~6.91 µM | IC50 (DENV-4-PR 06-65-740): 2.6 ± 0.12 µM | CC50 at 3 days (in vitro [5]): 14.2 ± 0.74 µM | IC50 (DENV-1-V1792): 1.87 ± 0.01 µM | IC50 (DENV-2-V594): 1.89 ± 0.21 µM | IC50 (ZIKV strain FLR [6]; Vero C1008, read-out: IC50 FLR): 0.21 ± 0.01 µM | IC50 [7]: 3.75 ± 0.01 µM | IC50 (ZIKV strain IbH 30656; Vero C1008, read-out: IC50 IbH 30656): 3.31 ± 0.11 µM | IC50 ([8]; Vero C1008, read-out: IC50 MEX 2–81): 2.79 ± 0.01 µM | IC50 (ZIKV strain PAN2016 [10]; [15]): 3.79 ± 0.01 µM | IC50 (ZIKV strain FLR [11]; [15]): 0.26 ± 0.01 µM | inhibition of ZIKV infection, step e: penetration (membrane fusion) (ZIKV (PAN2016); cells with ZIKV 4 °C 1 h, then natural product 37 °C 1 h): maintained its infectivity | inhibition of ZIKV infection, step f: postentry stage (ZIKV (PAN2016); cells with ZIKV 37 °C 1 h, then natural product 37 °C 1 h): maintained its infectivity | inhibition of ZIKV infection, step b: pretreatment of cells (ZIKV (PAN2016); cells with natural product 37 °C 1 h before ZIKV): maintained its infectivity | inhibition of ZIKV infection, step c: cotreatment at 4 °C (attachment) (ZIKV (PAN2016); cells, ZIKV and natural product 4 °C 1 h): maintained its infectivity | inhibition of ZIKV infection, step d: cotreatment at 37 °C (ZIKV (PAN2016); cells, ZIKV and natural product 37 °C 1 h): maintained its infectivity | inhibition of ZIKV infection, step a: pretreatment of ZIKV (ZIKV (PAN2016); natural product with ZIKV 37 °C 1 h before cells): completely lost its infectivity | IC90 (ZIKV strain PRVABC59 [12]; Vero C1008, read-out: IC90 against ZIKV strain PRVABC59): ~8.81 µM
